Source: ChEMBL document CHEMBL5120780, “Novel indazole skeleton derivatives containing 1,2,3-triazole as potential anti-prostate cancer drugs” (Bioorg Med Chem Lett, 2022)

Experiments:
PC-3 [1] = assay: Antiproliferative activity against human PC-3 cells assessed as inhibition of cell growth incubated for 72 hrs by MTT assay; type: functional, cell-based; details: PC-3, 72 h
MCF7 = assay: Antiproliferative activity against human MCF7 cells assessed as inhibition of cell growth incubated for 72 hrs by MTT assay; type: functional, cell-based; details: MCF7, 72 h
HepG2 = assay: Antiproliferative activity against human HepG2 cells assessed as inhibition of cell growth incubated for 72 hrs by MTT assay; type: functional, cell-based; details: HepG2, 72 h
MGC-803 = assay: Antiproliferative activity against human MGC-803 cells assessed as inhibition of cell growth incubated for 72 hrs by MTT assay; type: functional, cell-based; details: MGC-803, 72 h
PC-3 [2] = assay: Inhibition of colony formation in human PC-3 cells incubated for 7 days by crystal violet staining based analysis; type: functional, cell-based; details: dose 2-8 µM, time 7.0 day, DDE = dose-dependent effect
PC-3 [3] = assay: Induction of cell cycle arrest in human PC-3 cells assessed as accumulation of cells in G2/M phase at 8 uM incubated for 24 hrs by RNase/PI staining based flow cytometry analysis (reference value: 22.17%); type: functional
[4] = Cytotoxicity against human WPMY-1 cells assessed as inhibition of cell growth incubated for 72 hrs by MTT assay; type: toxicity, cell-based
[5] = Selectivity ratio of IC50 for cytotoxicity against human WPMY-1 cells to IC50 for antiproliferative activity against human PC-3 cells; type: toxicity, cell-based; details: WPMY-1 cells and PC-3 cells, read-out: Ratio IC50
[6] = Toxicity in wild type KM mouse assessed as animal survival at 2 g/Kg, IG measured for 2 weeks; details: in vivo, po, 2000 mg/kg, 336 h
[7] = Toxicity in wild type KM mouse assessed as behavioral abnormalities at 2 g/Kg, IG measured for 2 weeks; details: in vivo, po, 2000 mg/kg, 336 h
[8] = Toxicity in wild type KM mouse assessed as change in heart morphology at 2 g/Kg, IG measured for 2 weeks by H and E staining based microscopic analysis; type: tissue-based; details: in vivo, po, 2000 mg/kg, 336 h
[9] = Toxicity in wild type KM mouse assessed as change in liver morphology at 2 g/Kg, IG measured for 2 weeks by H and E staining based microscopic analysis; type: tissue-based; details: in vivo, po, 2000 mg/kg, 336 h
[10] = Toxicity in wild type KM mouse assessed as change in spleen morphology at 2 g/Kg, IG measured for 2 weeks by H and E staining based microscopic analysis; details: in vivo, po, 2000 mg/kg, 336 h
[11] = Toxicity in wild type KM mouse assessed as change in lung morphology at 2 g/Kg, IG measured for 2 weeks by H and E staining based microscopic analysis; details: in vivo, po, 2000 mg/kg, 336 h
[12] = Toxicity in wild type KM mouse assessed as change in kidney morphology at 2 g/Kg, IG measured for 2 weeks by H and E staining based microscopic analysis; details: in vivo, po, 2000 mg/kg, 336 h
[13] = Toxicity in wild type KM mouse assessed as change in prostate morphology at 2 g/Kg, IG measured for 2 weeks by H and E staining based microscopic analysis; details: in vivo, po, 2000 mg/kg, 336 h

Row | Compound | IC50 (PC-3 [1]) | IC50 (MCF7) | IC50 (HepG2) | IC50 (MGC-803) | also measured
1 | CC(C)n1ncc2c(C(=O)NCCN3CCCC3)cccc21 | > 40 µM | > 40 µM | > 40 µM | > 40 µM | 
2 | CC(C)n1ncc2c(C(=O)NCc3cn(-c4ccc([N+](=O)[O-])cc4)nn3)cccc21 | > 40 µM | > 40 µM | > 40 µM | > 40 µM | 
3 | CC(C)n1ncc2c(C(=O)NCc3cn(-c4cccc(Br)c4)nn3)cccc21 | 33.7 µM | > 40 µM | > 40 µM | > 40 µM | 
4 | CC(C)n1ncc2c(C(=O)NCc3cn(-c4ccccc4F)nn3)cccc21 | > 40 µM | > 40 µM | > 40 µM | > 40 µM | 
5 | CC(C)n1ncc2c(C(=O)NCCN(C)C)cccc21 | > 40 µM | > 40 µM | > 40 µM | > 40 µM | 
6 | CC(C)n1ncc2c(C(=O)NCc3cn(-c4ccc(I)cc4)nn3)cccc21 | > 40 µM | > 40 µM | > 40 µM | > 40 µM | 
7 | CC(C)n1ncc2c(C(=O)NCCN3CCN(C)CC3)cccc21 | > 40 µM | > 40 µM | > 40 µM | > 40 µM | 
8 | CC(C)n1ncc2c(C(=O)NCc3cn(Cc4ccc(C(F)(F)F)cc4)nn3)cccc21 | 23.9 µM | > 40 µM | > 40 µM | > 40 µM | 
9 | COc1ccc(-n2cc(CNC(=O)c3cccc4c3cnn4C(C)C)nn2)cc1 | 34.3 µM | > 40 µM | > 40 µM | > 40 µM | 
10 | CC(C)n1ncc2c(C(=O)NCCN3CCCCC3)cccc21 | > 40 µM | > 40 µM | > 40 µM | > 40 µM | 
11 | CC(C)n1ncc2c(C(=O)NCc3cn(Cc4ccccc4)nn3)cccc21 | 4.42 µM | 9.17 µM | 13.7 µM | 14.3 µM | inhibition (PC-3 [2]): Dde; Activity (PC-3 [3]): 72.25%; IC50 at 72 h [4]: 20.3 µM; selectivity ratio [5]: 4.42; Activity [6]: Non-Toxic; Activity [7]: Non-Toxic; Activity [8]: Non-Toxic; Activity [9]: Non-Toxic; Activity [10]: Non-Toxic; Activity [11]: Non-Toxic; Activity [12]: Non-Toxic; Activity [13]: Non-Toxic
12 | CC(C)n1ncc2c(C(=O)NCc3cn(-c4ccccc4)nn3)cccc21 | 25.9 µM | > 40 µM | > 40 µM | > 40 µM | 
13 | Cc1cccc(-n2cc(CNC(=O)c3cccc4c3cnn4C(C)C)nn2)c1 | 32.3 µM | > 40 µM | > 40 µM | > 40 µM | 
14 | CC(C)n1ncc2c(C(=O)NCc3cn(Cc4ccc(C#N)cc4)nn3)cccc21 | 18.2 µM | > 40 µM | > 40 µM | 39.6 µM | 
15 | CC(C)n1ncc2c(C(=O)NCc3cn(-c4ccc(C(F)(F)F)cc4)nn3)cccc21 | 38.6 µM | > 40 µM | > 40 µM | > 40 µM | 
16 | CC(C)n1ncc2c(C(=O)NCc3cn(-c4ccc(F)cc4)nn3)cccc21 | > 40 µM | > 40 µM | > 40 µM | > 40 µM | 
17 | O=c1[nH]cc(F)c(=O)[nH]1 [FLUOROURACIL] |  | 15.1 µM | 11.7 µM |  | 
18 | COc1ccc(Cn2cc(CNC(=O)c3cccc4c3cnn4C(C)C)nn2)cc1 | 34 µM | > 40 µM | > 40 µM | > 40 µM | 
19 | Cc1ccc(-n2cc(CNC(=O)c3cccc4c3cnn4C(C)C)nn2)cc1 | 39 µM | > 40 µM | > 40 µM | > 40 µM | 
20 | Cc1ccccc1-n1cc(CNC(=O)c2cccc3c2cnn3C(C)C)nn1 | 19.2 µM | > 40 µM | > 40 µM | > 40 µM | 
21 | CC(C)n1ncc2c(C(=O)NCc3ccccc3)cccc21 | 15.2 µM | > 40 µM | > 40 µM | > 40 µM | 
22 | CC(C)n1ncc2c(C(=O)NC3CCCC3)cccc21 | 19.4 µM | > 40 µM | > 40 µM | > 40 µM | 
23 | Cc1ccc(-n2cc(CNC(=O)c3cccc4c3cnn4C(C)C)nn2)cc1C | 23.4 µM | > 40 µM | > 40 µM | > 40 µM | 
24 | CC(C)n1ncc2c(C(=O)NCc3cn(Cc4ccc(C(C)(C)C)cc4)nn3)cccc21 | 8.89 µM | > 40 µM | > 40 µM | > 40 µM | 
25 | CCc1ccc(-n2cc(CNC(=O)c3cccc4c3cnn4C(C)C)nn2)cc1 | 26.6 µM | > 40 µM | > 40 µM | > 40 µM | 
26 | CC(C)n1ncc2c(C(=O)Nc3ccccc3)cccc21 | 11.9 µM | 19.7 µM | 23.7 µM | 38.5 µM | 
27 | CNC(=O)c1ccc(N2C(=S)N(c3ccc(C#N)c(C(F)(F)F)c3)C(=O)C2(C)C)cc1F [ENZALUTAMIDE] | 24.6 µM |  |  |  | IC50 at 72 h [4]: 61.4 µM; selectivity ratio [5]: 2.49
28 | Cc1ccc(-n2cc(CNC(=O)c3cccc4c3cnn4C(C)C)nn2)c(C)c1 | 10.6 µM | > 40 µM | > 40 µM | > 40 µM | 
29 | CC(C)n1ncc2c(C(=O)Nc3cccnc3)cccc21 | > 40 µM | > 40 µM | > 40 µM | > 40 µM | 
30 | CC(C)n1ncc2c(C(=O)NCc3cn(-c4cccc(F)c4)nn3)cccc21 | 36.1 µM | > 40 µM | > 40 µM | > 40 µM | 
